Earlier results in patent publication US20260216162A1, “SELECTIVE FIASMA TREATMENT” (VALO HEALTH, INC., priority 2023, published 2026).

Key:
[1] = test system: acid sphyingomyelinase (ASMase); conditions: final concentration of 10 µM, 30 minutes, 37° C.; normalized to control cells treated with the solvent alone

Row | Residual ASMase Activity (%) [1] [%] | Log P | Structure (SMILES)
1 | 13.0 |  | CNCCC(Oc1ccc(C(F)(F)F)cc1)c1ccccc1 (stereo not drawn) [Fluoxetine]
2 | 31.7 | 3.9 | Fc1ccc([C@@H]2CCNC[C@H]2COc2ccc3c(c2)OCO3)cc1 [Paroxetine]
